Reference: US20090082443A1, “Use of fatty acid esters of glycerol combined with polylysine against gram-negative bacteria” (PURAC BIOCHEM B.V., priority 2007, published 2009)

Legend:
[1] = test system: Escherichia coli (ATCC 8739); experiment: Bioscreen growth rate in brain heart infusion broth (synergy study); assay type: cell-based
Experimental: (§1) The following cultures were used in a study: Escherichia coli (ATCC 8739), Escherichia coli serotype O157:H7 (ATCC 700728), Salmonella typhimurium (ATCC 13311) and Salmonella entiritidis (ATCC 13076). All cultures were transferred daily in screw-capped tubes containing 10 ml brain heart infusion broth. Cultures were incubated at 30° C. without agitation. Brain heart infusion broth was prepared with increasing amounts of the mono/di glyceride and polylysine. The concentration range for the caprylic (C8) mono/di glyceride was as from 0 to 0.18% in 10 0.02% steps, for the capric (C10) mono/di glyceride was as from 0 to 0.09% in 10 0.01% steps, for the lauric (C12)mono/di glyceride was as from 0 to 0.009% in 10 0.001% steps. Mono/di glycerides were combined with polylysine. The concentration range for the polylysine was as from 0 to 0.0675% in 10 0.0075% steps, resulting in 100 different media. The pH of the media was adjusted to 6.1-6.2 with 1 N HCl or 1 N NaOH. Media were prepared in 10 ml quantities and sterilized by filtration. 300 μl of each medium was transferred to a panel of a sterile Bioscreen® honeycomb 100 well plate. Well plates were inoculated with 5 μl of a culture that was grown overnight in brain heart infusion broth using a sterile 5 μl repeating dispenser. Growth rates were determined with a Bioscreen® that kinetically measures the development of turbidity by vertical photometry. The plates were incubated for 16-24 hours at 37° C., the optical density of the cultures was measured every 30 minutes at 420-580 nm using a wide band filter. The Bioscreen® measures at set time intervals the optical density of the cultures. […] The purpose of further data processing is to ascertain whether two […] act independently of each other or whether they stimulate each other in their inhibitory action (synergy) or cancel out each other inhibitory effect (antagonism). […] This implies that only the maximum specific growth rate (μmax) value and not the affinity (Ks) is affected. Therefore the specific growth rate in the presence of inhibitor can be written as: μ=μi.s/(Ks+s), where μi is the maximal specific growth rate in the presence of a inhibitor P. The relationship between μi and μmax and the concentration of the inhibitor P was describes using the Logistic Dose Response equation, which reads: μi/μmax=1/(1+(p/P0.5)^b) (Jungbauer, A. (2001). The logistic dose response function: a robust fitting function for transition phenomena in life sciences. J. Clinical Ligand Assay 24: 270-274). In this equation p represents the concentration of inhibitor P and p0.5 the concentration of P where p=0.5 μmax; μmax is the maximum specific growth rate that is the specific growth rate in the absence of inhibitor P, b is a dimensionless quantity, which determines the relationship between μi and p. Combining the Monod and Logistic Dose Response equation it can be written as: μ=μmax (s/Ks+s)/(1+(p/p0.5)^b). In batch culture where s is usually many times higher than Ks this equation reduces to μ=μmax/(1+(p/p0.5)^b). When comparing different organisms grown under the same conditions, or the same organism grown under different conditions, it is more meaningful to use relative growth rate, rather than absolute growth rates as standards of comparison. Relative growth rate (O) is the ratio of growth rate (μ) to maximum growth rate (μmax) i.e. O=μ/μmax. It can be seen that while μ and μmax have the dimensions of (time)^−1, their ratio O is dimensionless, i.e. a pure number. Similarly we can define the relative inhibitor concentration ε as p/p0.5. The reduced Monod and Logistic Dose Response equation can now be written as: O=1/(1+ε^b).

[2] = test system: Escherichia coli serotype O157:H7 (ATCC 700728); experiment: as above; assay type: cell-based
Experimental: as §1

[3] = test system: Salmonella entiritidis (ATCC 13076); experiment: as above; assay type: cell-based
Experimental: as §1

[4] = test system: Salmonella typhimurium (ATCC 13311); experiment: as above; assay type: cell-based
Experimental: as §1

[5] = test system: Salmonella Typhimurium ATCC 13311; experiment: Decontamination of inoculated chicken filets, surviving counts; assay type: cell-based
Experimental: Salmonella Typhimurium ATCC 13311 and Escherichia coli O157:H7 ATCC 700728 were grown in sterile screw capped tubes containing Brain heart infusion broth for 18-24 hours at 30° C.
Chicken filets (150-200 g) were trimmed, vacuum packaged and stored at 4-7° C. Filets were subsequently sterilized by gamma-irradiation (average radiation dose: 12 kiloGray).
1 ml of an overnight culture of Salmonella Typhimurium in brain heart infusion both was diluted 1000 times with sterile 0.8% (w/v) NaCl and 0.1% (w/v) peptone. 0.5 ml of this diluted culture was transferred to one side of the filet. The inoculum was distributed by gently rubbing the entire surface of the filet. This was repeated for the other side of the filet. Inoculation was carried out at 6° C. Inoculated filets were rested for 60-120 min at 6° C. to allow attachment of the cells.
Chicken filets were briefly dipped and completely submersed in 1 l of a solution containing the appropriate formulation and then transferred to 400 ml Bagfilter® lateral filter bags (Interscience, St Nom, France) containing 5 ml of the appropriate formulation. Bags were vacuum-sealed and incubated at 12° C. for up to 7 days until further analysis. Time zero samples were plated within 30 min after dipping.
Surviving Salmonella Typhimurium on chicken filets were counted as follows: a sealed bag was opened and to this was added 2 times the net weight sterile dilution fluid ([…] NaCl and 0.1% (w/v) bacteriological peptone). Duplicate filets were homogenized for 1 min. in a Bagmixer® 400 paddle labblender (Interscience, St Nom, France). 50 μl of the homogenates or dilutions thereof were plated on duplicate Salmonella chromogenic agar plates (CM1007) with cefsulodin, novobiocin supplement (SR0194) (Oxoid, Basingstoke, United Kingdom) using an Eddyjet type 1.23 spiral plater (IUL Instruments, Barcelona, Spain). Plates were incubated for 24-48 hours at 30° C. and then counted. Salmonella numbers were expressed as log10 colony forming units per ml homogenate.
The compositions of the formulations that were studied are shown in Table 2. ε-Polylysine and mono/di glycerides were dissolved in demineralised water and sterilized for 20 min at 120° C.

[6] = test system: gram-positive and -negative bacteria; conditions: Shima et al. (November 1984); cited from earlier work
[7] = 0.0225% (w/w) polylysine alone, C8 part of Table 1
[8] = 0.0225% (w/w) polylysine alone, C10 part of Table 1
[9] = 0.090% (w/w) C10-glycerol ester alone
[10] = 0.120% (w/w) C8-glycerol ester alone

## ε-Polylysine
[1]; [7]
  Observed Relative Growth Rate: 0.7570
[2]; [7]
  Observed Relative Growth Rate: 0.8315
[2]; [8]
  Observed Relative Growth Rate: 0.5850
[3]; [7]
  Observed Relative Growth Rate: 0.9945
[3]; [8]
  Observed Relative Growth Rate: 0.9600
[4]; [7]
  Observed Relative Growth Rate: 0.9653
[4]; [8]
  Observed Relative Growth Rate: 0.9910
[5]; 0.1% (w/v) alone, 12° C., 0 days
  Salmonella Typhimurium on chicken filets: 3.04 log10 colony forming units (CFU)/ml
[5]; 0.1% (w/v) alone, 12° C., 1 day
  Salmonella Typhimurium on chicken filets: 2.04 log10 colony forming units (CFU)/ml
[5]; 0.1% (w/v) alone, 12° C., 2 days
  Salmonella Typhimurium on chicken filets: 2.15 log10 colony forming units (CFU)/ml
[5]; 0.1% (w/v) alone, 12° C., 5 days
  Salmonella Typhimurium on chicken filets: 4.04 log10 colony forming units (CFU)/ml
[5]; 0.1% (w/v) alone, 12° C., 6 days
  Salmonella Typhimurium on chicken filets: 4.26 log10 colony forming units (CFU)/ml
[5]; 0.1% (w/v) alone, 12° C., 7 days
  Salmonella Typhimurium on chicken filets: 5.35 log10 colony forming units (CFU)/ml
[5]; individual components on chicken filets, 12° C.
  killing or growth suppressing effect (in words): reduced the cell numbers
[5]; single addition, after one day of incubation
  reduction in numbers: 2 log10
[6]
  concentrations effectively used against bacteria: 1˜8 microgram per ml

## glyceryl mono/di decanoate [C10-glycerol ester]
[2]; [9]
  Observed Relative Growth Rate: 0.8685
[3]; [9]
  Observed Relative Growth Rate: 0.8960
[4]; [9]
  Observed Relative Growth Rate: 0.4613
[5]; 0.05% (w/v) alone, 12° C., 0 days
  Salmonella Typhimurium on chicken filets: 3.72 log10 colony forming units (CFU)/ml
[5]; 0.05% (w/v) alone, 12° C., 1 day
  Salmonella Typhimurium on chicken filets: 3.98 log10 colony forming units (CFU)/ml
[5]; 0.05% (w/v) alone, 12° C., 2 days
  Salmonella Typhimurium on chicken filets: 4.32 log10 colony forming units (CFU)/ml
[5]; 0.05% (w/v) alone, 12° C., 5 days
  Salmonella Typhimurium on chicken filets: 6.0 log10 colony forming units (CFU)/ml
[5]; 0.05% (w/v) alone, 12° C., 6 days
  Salmonella Typhimurium on chicken filets: 7.62 log10 colony forming units (CFU)/ml
[5]; 0.05% (w/v) alone, 12° C., 7 days
  Salmonella Typhimurium on chicken filets: 7.85 log10 colony forming units (CFU)/ml

## glyceryl mono/di octanoate [C8-glycerol ester]
[1]; 0.120% (w/w) C8-glycerol ester alone, broth pH 6.1-6.2, 37° C.
  Observed Relative Growth Rate: 1.0845
[2]; [10]
  Observed Relative Growth Rate: 0.9410
[3]; [10]
  Observed Relative Growth Rate: 0.5220
[4]; [10]
  Observed Relative Growth Rate: 0.4035
[5]; 0.2% (w/v) alone, 12° C., 0 days
  Salmonella Typhimurium on chicken filets: 3.82 log10 colony forming units (CFU)/ml
[5]; 0.2% (w/v) alone, 12° C., 1 day
  Salmonella Typhimurium on chicken filets: 3.81 log10 colony forming units (CFU)/ml
[5]; 0.2% (w/v) alone, 12° C., 2 days
  Salmonella Typhimurium on chicken filets: 4.03 log10 colony forming units (CFU)/ml
[5]; 0.2% (w/v) alone, 12° C., 5 days
  Salmonella Typhimurium on chicken filets: 6.41 log10 colony forming units (CFU)/ml
[5]; 0.2% (w/v) alone, 12° C., 6 days
  Salmonella Typhimurium on chicken filets: 7.48 log10 colony forming units (CFU)/ml
[5]; 0.2% (w/v) alone, 12° C., 7 days
  Salmonella Typhimurium on chicken filets: 7.39 log10 colony forming units (CFU)/ml
